# Measured values reported in US20160338992A1, “COMPOSITE COMPRISING 3'-HYDROXYGENISTEIN AND USE FOR INHIBITION OF MELANOGENESIS” (BIO-JOURDENESS INTERNATIONAL GROUP CO., LTD., priority 2015, published 2016).
# Experiments:
# tyrosinase [1] = test: Effect on tyrosinase activity (L-DOPA to dopachrome, absorbance at 475 nm); format: biochemical; conditions: for effect on tyrosinase activity (FIG. 2): 10-40 μM
# Experimental: Tyrosinase plays an important role on melanogenesis. Thus the effect of 3′-hydroxygenistein on tyrosinase is detected. First dissolve 1 μL 3′-hydroxygenistein in DMSO (dimethyl sulfoxide) and mixed with 5 μL tyrosinase in a 94 μL, 50 mM PBS (pH 6.8). Add 0.9 mL, 2.5 mM L-DOPA (dissolved in 50 mM PBS, pH 6.8) into the mixture and react at 25° C. for 10 minutes.
# B16 melanoma 4A5 cells [2] = test: Cell viability by MTT assay; format: cell-based, mouse; conditions: 48 hours
# Experimental: In order to confirm a non-cytotoxic concentration range of 3′-hydroxygenistein, MTT and crystal violet staining assays are used to detect cell viability of 3′-hydroxygenistein. A mouse melanoma cell line (B16 melanoma 4A5 obtained from bioresource Collection and Research Center, Food Industry Research and Development Institute) is cultured in DMEM (Dulbecco's Modified Eagle Medium) containing 10% (v/v) fetal bovine serum (FBS) in a 5% CO2 humidified incubator for 24 hours. The B16 melanoma 4A5 cells are treated with 3′-hydroxygenistein for 48 hours. Then remove the culture medium, add 1 mg/mL MTT dissolved in PBS and incubate for 2 hours. Next remove MTT solution and add DMSO. At last, use spectrophotometer ((U-5100; Hitachi, Japan) to detect absorbance of dissolved formazan crystals at 475 nm. The cell viability is expressed as percentage of control (% of control).
# B16 melanoma 4A5 cells [3] = test: Melanin content in IBMX-stimulated cells; format: cell-based, mouse; conditions: 400 μM IBMX, 2 days; for effect on melanogenesis (FIG. 4): 10 μM and 20 μM
# Experimental: In this experiment, 3-isobutyl-1-methylxanthine (IBMX) is used as a melanogenic-stimulating agent while genistein and danazol with inhibitory effect on melanogenesis are used as positive controls. The B 16 melanoma 4A5 cells are cultured in DMEM containing 10% (v/v) fetal bovine serum (FBS) in a 5% CO2 humidified incubator at 37° C. Then seed cells in a 24-well plate with proper density. After one day, the cells are treated with 5 μM, 10 μM, and 20 μM 3′-hydroxygenistein respectively in the presence of 400 μM IBMX and cultured for 2 days. Then collect and wash the cells with PBS (Phosphate Buffered Saline) buffer twice. The cell pellets are dissolved in lysis buffer containing 20 mM trisodium phosphate (pH6.8) and 1% Triton X-100. After centrifugation at 15,000×g for 15 minutes, melanin pellets are dissolved in 1N NaOH containing 20% DMSO at 95° C. for 1 hour. Use spectrophotometer ((U-5100; Hitachi, Japan) to detect absorbance of melanin at 490 nm. The melanin content is expressed as percentage of the control group (IBMX group).
# tyrosinase [4] = conditions: cited from earlier work
# melanin cells = conditions: 30 μM to 60 μM; cited from earlier work
structure (smiles),measurement,setting,value
O=c1c(-c2ccc(O)c(O)c2)coc2cc(O)cc(O)c12 [3′-hydroxygenistein],effect on tyrosinase activity (FIG. 2),tyrosinase [1],inhibits tyrosinase activity in a dose-dependent manner
same,IC50,"tyrosinase [1]; L-DOPA substrate, 25° C., 10 minutes, pH 6.8, read-out: half-inhibitory concentration (IC50) in inhibiting tyrosinase",15.9 µM
same,"tyrosinase inhibitory activity, times stronger than kojic acid","tyrosinase [1]; ratio of IC50 values, kojic acid as the standard",11 times
same,"cytotoxicity (cell survival rate, FIG. 3)",B16 melanoma 4A5 cells [2]; 40 μM,shows cytotoxicity
same,"cytotoxicity (cell survival rate, FIG. 3)",B16 melanoma 4A5 cells [2]; concentration between 10 μM and 20 μM,no cytotoxicity
same,effect on melanogenesis (FIG. 4),B16 melanoma 4A5 cells [3],show inhibition of melanogenesis
same,"melanin content, percentage of the control group (IBMX group)",B16 melanoma 4A5 cells [3]; 20 μM,50.5%
same,inhibitory effect on melanogenesis compared with danazol,B16 melanoma 4A5 cells [3],better than danazol
"O=c1c(-c2ccc(O)cc2)coc2cc(O)c(O)cc12 [6-OHDe, 6,7,4′-trihrdroxyisoflavone]","tyrosinase inhibitory activity, times stronger than glycitein",tyrosinase [4]; Taiwanese Pat. No. 1312686,25 times
same,tyrosinase inhibition activity (literature),tyrosinase [4],have tyrosinase inhibition activity
"O=c1c(-c2ccc(O)cc2)coc2c(O)c(O)ccc12 [8-OHDe, 7,8,4′-trihrdroxyisoflavone]","tyrosinase inhibitory activity, times stronger than daidzein",tyrosinase [4]; Taiwanese Pat. No. 1312686,30 times
same,tyrosinase inhibition activity (literature),tyrosinase [4],have tyrosinase inhibition activity
"O=c1c(-c2ccc(O)cc2)coc2c(O)c(O)cc(O)c12 [8-hydroxygenistein, 5,7,8,4′-tetrahydroxyisoflavone]","tyrosinase inhibitory activity, times stronger than genistein",tyrosinase [4]; Taiwanese Pat. No. 1312686,90 times
O=c1c(-c2ccc(O)cc2)coc2cc(O)ccc12 [daidzein],tyrosinase inhibition activity (literature),tyrosinase [4],doesn't have such activity
O=c1c(-c2ccc(O)cc2)coc2cc(O)cc(O)c12 [genistein],effect on tyrosinase activity (FIG. 2),tyrosinase [1],no tyrosinase inhibitory activity
same,effect on melanogenesis (FIG. 4),B16 melanoma 4A5 cells [3],no inhibitory effect on melanogenesis
same,effect on melanin production (literature),melanin cells,induce melanin cells to produce more melanin
